Read-outs that look alike come from different tables or passages of the source.
Biological target: T1, JAK3 (recombinant human kinase domain; h-jak3(810-1124)) (Homo sapiens, UniProt P52333)
T1 construct: h-jak3(810- 1124)-sf9-c; made in house; host or cells: Sf9 insect cells
Test: Determination of IC50 of Janus Kinase (JAK) inhibition: JAK3, radioactive end-point assay with 33P-ATP
Assay type: biochemical

[1] = JAK3 kinase domain, ATP 1.5 uM, peptide 50 uM, 20 minutes, room temperature, 10% DMSO, read-out: Ic50 h-jak3(810-1124)-sf9-c:no additive

T1 sequence (P52333 810-1124): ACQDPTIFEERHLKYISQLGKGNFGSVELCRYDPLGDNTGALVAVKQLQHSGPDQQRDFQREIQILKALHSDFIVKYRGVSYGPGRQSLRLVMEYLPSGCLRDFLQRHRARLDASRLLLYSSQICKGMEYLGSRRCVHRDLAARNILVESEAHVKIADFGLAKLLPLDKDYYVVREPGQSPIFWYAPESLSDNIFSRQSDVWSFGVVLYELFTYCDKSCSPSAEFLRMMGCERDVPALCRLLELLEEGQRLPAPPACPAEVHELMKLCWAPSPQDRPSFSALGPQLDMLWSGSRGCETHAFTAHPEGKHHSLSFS
From the text: Determination of IC50 of Janus Kinase (JAK) Inhibition:
Enzymes and peptide substrate used are described below: • JAK1: Recombinant human kinase domain from Invitrogen (Cat # PV4774) • JAK3: Recombinant human kinase domain from Millipore (Cat #14-629) or prepared. • JAK2: Recombinant human kinase domain from Millipore (Cat #14-640) • Substrate: N-terminally biotinylated 14-mer peptide derived from activation loop of JAK1 with sequence of the peptide substrate: Biotin-[sequence]
Assay Conditions Used are Described Below: • Assay Buffer: JAK Kinase Buffer: 50 mM Hepes [pH 7.2], 10 mM MgCl2, 1 mM DTT, • 1 mg/ml BSA. The assay is carried out in this buffer. • Assay Format The kinase activity of all three JAK kinases is measured using a radioactive, end-point assay and with trace amounts of ^33P-ATP. The assays are carried out in 96-well polypropylene plates.
All concentrations are final in the reaction mixture and all incubations are carried at room temperature. […] Final concentration of DMSO in the reaction is 10%. • 2) Compounds are preincubated with enzyme (0.5 nM JAK3 (commercially available), 0.2 nM JAK3 (prepared), 1 nM JAK2, 5 nM JAK1) for 10 minutes. • 3) Reactions are initiated by the addition of a cocktail of the two substrates (ATP and peptide premixed in the JAK Kinase Buffer). In the JAK2/JAK3 assays, ATP and the peptide are used at concentrations of 1.5 uM and 50 uM, respectively. JAK1 assay is carried out at an ATP concentration of 10 uM and a peptide concentration of 50 uM. • 4) The duration of the assay for JAK2 and JAK3 is 20 minutes. JAK1 assay is carried out for 40 minutes. With all three enzymes, reactions are terminated by the addition of 0.5M EDTA to a final concentration of 100 mM. • 5) 25 ul of terminated reactions are transferred to 150 ul of a 7.5% (v/v) slurry of streptavidin-coated sepharose beads in MgCl2- and CaCl2-free 1× Phosphate Buffered Saline containing 50 mM of EDTA in 96-well, 1.2 um MultiScreen-BV filter plates. • 6) After a 30-minute incubation, the beads are washed under vacuum with the following buffers: • a. 3 to 4 washes with 200 ul of 2M NaCl. • b. 3 to 4 washes with 200 ul of 2M NaCl plus 1% (v/v) phosphoric acid. • c. 1 wash with water. • 7) Washed plates are dried in a 60° C. oven for between 1 to 2 hours. • 8) 70 ul of Microscint 20 scintillation fluid is added to each well of filter plates and after at least 30 minutes of incubation, radioactive counts are measured in a Perkin-Elmer microplate scintillation counter.

SMILES | IC50 [1] [nM] | IC50 [nM]
CC(C)NC(=O)c1c[nH]c2ncc(Oc3cccc(C(C)C)c3)nc12 [Example I-234, 2-(3-Isopropyl-phenoxy)-5H-pyrrolo[2,3-b]pyrazine-7-carboxylic acid isopropylamide] | 980 | –
CC(C)NC(=O)c1c[nH]c2ncc(Oc3ccc4c(c3)[C@@H](O)CC4)nc12 [Example I-304, 2-((S)-3-Hydroxy-indan-5-yloxy)-5H-pyrrolo[2,3-b]pyrazine-7-carboxylic acid isopropylamide] | 155 | –
CC(C)NC(=O)c1c[nH]c2ncc(Oc3ccc4c(c3)[C@H](NC=O)CC4)nc12 [Example I-301, 2-((R)-3-Formylamino-indan-5-yloxy)-5H-pyrrolo[2,3-b]pyrazine-7-carboxylic acid isopropylamide] | 118 | –
C[C@H](NC(=O)c1c[nH]c2ncc(-c3ccc(C(=O)N4CC(CO)(CO)C4)s3)nc12)C(C)(C)C [Example I-218, 2-[5-(3,3-Bis-hydroxymethyl-azetidine-1-carbonyl)-thiophen-2-yl]-5H-pyrrolo[2,3-b]pyrazine-7-carboxylic acid ((S)-1,2,2-trimethyl-propyl)-amide] | 0.13 | –
Cc1cc(-c2cnc3[nH]cc(C(=O)N[C@@H](C)C(C)(C)C)c3n2)sc1C(=O)N1CC2(COC2)C1 [Example I-221, 2-[4-Methyl-5-(2-oxa-6-aza-spiro[3.3]heptane-6-carbonyl)-thiophen-2-yl]-5H-pyrrolo[2,3-b]pyrazine-7-carboxylic acid ((S)-1,2,2-trimethyl-propyl)-amide] | 0.08 | –
CC(=O)N[C@@H]1CCc2ccc(Oc3cnc4[nH]cc(C(=O)N[C@@H](C)C(C)(C)C)c4n3)cc21 [Example I-287, 2-((R)-3-Acetylamino-indan-5-yloxy)-5H-pyrrolo[2,3-b]pyrazine-7-carboxylic acid ((S)-1,2,2-trimethyl-propyl)-amide] | 20.2 | –
CC(C)NC(=O)c1c[nH]c2ncc(Oc3ccc4c(c3)C=CC4)nc12 [Example I-302, 2-(1H-Inden-5-yloxy)-5H-pyrrolo[2,3-b]pyrazine-7-carboxylic acid isopropylamide] | – | 157
C[C@H](NC(=O)c1c[nH]c2ncc(-c3ccc(C(=O)N4CCN(C)CC4)s3)nc12)C(C)(C)C [Example I-161, 2-[5-(4-Methyl-piperazine-1-carbonyl)-thiophen-2-yl]-5H-pyrrolo[2,3-b]pyrazine-7-carboxylic acid ((S)-1,2,2-trimethyl-propyl)-amide] | 0.32 | –
CCNC(=O)c1c[nH]c2ncc(Oc3cccc(C(F)(F)F)c3)nc12 [Example I-251, 2-(3-Trifluoromethyl-phenoxy)-5H-pyrrolo[2,3-b]pyrazine-7-carboxylic acid ethylamide] | 4030 | –

Further lines, results first:

IC50 [1] [nM] | IC50 [nM] | SMILES
19.6 | – | COCC(C)NC(=O)c1c[nH]c2ncc(C3CC3)nc12 (centres unmarked) [Example I-9, 2-Cyclopropyl-5H-pyrrolo[2,3-b]pyrazine-7-carboxylic acid (2-methoxy-1-methyl-ethyl)-amide]
934 | – | CC(CN(C)C)NC(=O)c1c[nH]c2ncc(C3CC3)nc12 (centres unmarked) [Example I-27, 2-Cyclopropyl-5H-pyrrolo[2,3-b]pyrazine-7-carboxylic acid (2-dimethylamino-1-methyl-ethyl)-amide]
39.5 | – | CC[C@](C)(O)[C@H](C)NC(=O)c1c[nH]c2ncc(C3CC3)nc12 [Example I-31, 2-Cyclopropyl-5H-pyrrolo[2,3-b]pyrazine-7-carboxylic acid ((1S,2S)-2-hydroxy-1,2-dimethyl-butyl)-amide]
22 | – | C[C@H](NC(=O)c1c[nH]c2ncc(C3CC3)nc12)c1cc[nH]n1 [Example I-37, 2-Cyclopropyl-5H-pyrrolo[2,3-b]pyrazine-7-carboxylic acid [(S)-1-(1H-pyrazol-3-yl)-ethyl]-amide]
493 | – | N#CCCCNC(=O)c1c[nH]c2ncc(C3CC3)nc12 [Example I-33, 2-Cyclopropyl-5H-pyrrolo[2,3-b]pyrazine-7-carboxylic acid (3-cyano-propyl)-amide]

Reference: patent US20140155376A1, “PYRROLOPYRAZINE KINASE INHIBITORS” (Hoffmann-La Roche Inc., priority 2010, published 2014)
